Consider two molecules from paper PMC13125297, “Portable geosmin detection system based on sensor cells expressing insect odorant receptors” (Scientific Reports, 2026).

One assay has as its target T1, Or13a (Drosophila melanogaster, UniProt Q9VXL0).
T1 construct: wild-type Or13a stably expressed in Sf21 cells (clone Or13a-WT-C4); with Orco
T1 sequence (Q9VXL0 1-418): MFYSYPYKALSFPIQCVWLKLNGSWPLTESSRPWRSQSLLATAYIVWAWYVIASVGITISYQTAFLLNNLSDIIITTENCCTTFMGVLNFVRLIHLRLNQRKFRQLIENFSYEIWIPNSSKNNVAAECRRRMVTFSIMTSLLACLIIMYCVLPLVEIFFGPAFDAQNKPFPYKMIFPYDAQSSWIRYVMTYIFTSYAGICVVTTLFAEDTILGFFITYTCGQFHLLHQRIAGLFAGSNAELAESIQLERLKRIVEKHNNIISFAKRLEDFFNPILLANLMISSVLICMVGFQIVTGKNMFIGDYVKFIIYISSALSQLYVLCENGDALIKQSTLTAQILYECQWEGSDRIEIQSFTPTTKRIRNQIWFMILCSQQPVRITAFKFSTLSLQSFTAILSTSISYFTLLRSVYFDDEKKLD
T1 sequence (Q9VNB5 1-486 partner): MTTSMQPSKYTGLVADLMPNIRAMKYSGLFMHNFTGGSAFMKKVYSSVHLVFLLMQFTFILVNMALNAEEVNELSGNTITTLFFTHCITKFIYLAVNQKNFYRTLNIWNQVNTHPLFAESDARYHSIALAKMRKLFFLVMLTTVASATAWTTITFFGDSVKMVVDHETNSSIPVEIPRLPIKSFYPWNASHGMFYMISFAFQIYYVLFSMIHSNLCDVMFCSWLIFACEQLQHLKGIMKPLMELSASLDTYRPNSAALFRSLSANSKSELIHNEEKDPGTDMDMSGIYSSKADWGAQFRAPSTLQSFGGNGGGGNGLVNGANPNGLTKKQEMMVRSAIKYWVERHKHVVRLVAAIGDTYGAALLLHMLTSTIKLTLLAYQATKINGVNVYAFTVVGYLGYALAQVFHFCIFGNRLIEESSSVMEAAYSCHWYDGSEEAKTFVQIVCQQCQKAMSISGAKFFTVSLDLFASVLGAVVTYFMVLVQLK
Briefly: GCaMP6s calcium imaging in Sf21 cells co-expressing Or13a and Orco, dose-response. It is filed as cell-based.

In another assay the target is T2, Or56a (Drosophila melanogaster, UniProt Q9V8Y7).
T2 construct: with Orco
T2 sequence (Q9V8Y7 whole entry, one chain of several): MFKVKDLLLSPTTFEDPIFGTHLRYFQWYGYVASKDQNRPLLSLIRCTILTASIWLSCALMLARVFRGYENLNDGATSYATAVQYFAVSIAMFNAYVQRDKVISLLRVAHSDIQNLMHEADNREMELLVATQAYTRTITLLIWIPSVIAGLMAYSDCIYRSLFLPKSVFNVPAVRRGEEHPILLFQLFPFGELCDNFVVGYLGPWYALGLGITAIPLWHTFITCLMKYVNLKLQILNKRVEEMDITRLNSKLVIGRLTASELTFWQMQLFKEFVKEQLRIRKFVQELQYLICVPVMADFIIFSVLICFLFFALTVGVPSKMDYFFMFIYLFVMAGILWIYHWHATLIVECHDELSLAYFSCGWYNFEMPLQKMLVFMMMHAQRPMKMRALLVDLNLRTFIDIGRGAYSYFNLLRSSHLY
Briefly: GCaMP6s calcium imaging in Sf21 cells co-expressing Or56a and Orco, dose-response. Format: cell-based.

For the molecule `C=CC(O)CCCCC` (centres unmarked) [1-octen-3-ol], the EC50 on Or13a is 3.5 µM.

For `CC1CCCC2(C)CCCCC12O` (stereo not drawn) [geosmin, trans-1,10-dimethyl-trans-9-decalol], the half-maximal effective concentration (EC50) on Or56a came to 0.63 µM.

The EC50 is the concentration at which the effect is half-maximal.
